How the values were obtained:
Assay type in all cases: cell-based, human
[1] = system: Akt phosphorylation sites Thr308 and Ser473; assay: Akt signaling, western blot in PDAC cell lines; conditions: BxPC3, Capan1, MiaPaCa2, Panc1, 10 min; for Akt Ser473 phosphorylation: 10 nM S100A8, S100A9, S100A8/A9, 50 nM NT-S100A8; for Akt Thr308 phosphorylation: 10 nM S100A8, S100A9, S100A8/A9, 50 nM NT-S100A8, 0.02 ng/ml TGFβ1
Method: (§1) Five million cells were seeded in Petri dishes (ø 10 cm) and cultured for 24 hours in their respective complete media prior to starting the experiments. Cells remained non-stimulated (negative control) or were stimulated with 50 mU insulin (positive control) (Insuman Rapid, Sanofi-Aventis, Deutschland, GmbH) for 10 min; in parallel, experimental cells were stimulated with 50 nM NT-S100A8, 0,02 ng/ml TGFβ1 (ProSpec-Tany TechnoGene), 10 nM S100A8 and 10 nM S100A9 alone or combined for 10 min. Following stimulations, Petri dishes were immediately transferred into an ice bath, and the cells were washed twice with cold PBS, re-suspended in 100 μl of cold lysis buffer [20 mM Tris–HCl, pH 7.5, 150 mM NaCl, 1 mM EDTA, 1% Triton-X 100, 50 mM NaF, 10 mM Na4P2O7,1 mM Na3VO4, and 10% protease inhibitor cocktail (Sigma Aldrich SRL, Milano, Italy)]. Lysates were centrifuged for 10 min at 14,000 rpm at 4°C and, in the supernatants, total proteins were measured using the Bio-Rad protein assay (Bio-Rad Laboratories, Milano, Italy). Each experiment was performed at least in triplicate.
(§2) For each sample, 40 μg proteins were electrophoresed through 4–12% NuPAGE®NovexBis-Tris SDS–PAGE Gel or 3-8% NuPAGE®NovexTris-Acetate SDS–PAGE Gel (Invitrogen S.R.L., Life Technologies, Monza, Italy) and electrophoretically transferred to Nitrocellulose Membrane (iBlot® Transfer Stack, Invitrogen S.R.L.) by means of the iBlotTMDry Blotting System (Invitrogen S.R.L.). Following incubation for 1 hour in a blocking buffer [5% low fat powder milk re-suspended in PBS-T (PBS with 0.1% Tween-20)], membranes were incubated overnight at 4°C with the primary antibodies [antiphospho IkB-α (Ser^32) (Santa Cruz Biotechnology, Inc., Santa Cruz, CA, USA); anti-phospho-Akt (Ser^473), anti-phospho-Akt (Thr^308), anti-Akt and anti-phospho-S6 Ribosomal Protein (Ser^235/236), anti-cleaved Caspase-3, anti-phospho-Stat3 Tyr^705, anti-β-actin, anti-phospho mTOR (Ser^2448, Ser^2481) (Cell Signaling Technology, Danvers, MA, USA); anti-RAGE (R&D Systems, Minneapolis, MN, USA) ] diluted 1:5000 (β-actin), 1:2000 (mTOR, cleaved Caspase-3, Stat3) or 1:3000 (all the others) in the blocking buffer. The blots, washed three times in PBS-T for 15 min, were incubated with […] anti-rabbit (Cell Signaling Technology) or anti-goat (Sigma Aldrich) secondary antibodies and then washed three times in PBS-T for 15 min and developed with the ECL Advance Western Blot Detection Kit (GE Healthcare Technologies, Milan, Italy).

[2] = system: mTOR Ser2481, Ser2448 and S6 Ribosomal Protein phosphorylation; assay: mTOR signaling, western blot in PDAC cell lines; conditions: BxPC3, Capan1, MiaPaCa2, Panc1, 10 min, 10 nM S100A8, S100A9, S100A8/A9, 50 nM NT-S100A8, 0.02 ng/ml TGFβ1
Method: as §1, §2

MiaPaCa2 [Ca2+]i = assay: Intracellular calcium, fluo-4 epifluorescence, MiaPaCa2; conditions: for [Ca2+]i variation per minute per cell: MiaPaCa2, 200 to 480 second interval, vs control cells, One-Way ANOVA, Bonferroni; for effect on the [Ca2+]i decrement induced by TGFβ1: MiaPaCa2, combined with 0.02 ng/ml TGFβ1, 200 to 480 second interval
Method: BxPC3 and MiaPaCa2 cells, seeded (80 × 10^3 cells) on coverslips that had been inserted within each well of six well culture plates, were kept in their respective complete media for 24 hours. Coverslips were then incubated for 10 min at 37°C with 3 μM fluo-4 AM (Invitrogen S.R.L.) in an imaging buffer containing 137 mM NaCl, 5 mM KCl, 1.2 mM MgCl2, 0.44 mM KH2PO4, 4.2 mM NaHCO3, 5 mM glucose, and 20 mM HEPES pH 7.4. The cells were carefully washed with the imaging buffer after its removal. Calcium oscillations were then analyzed by means of an inverted epifluorescence microscope equipped with a top stage incubator (Tokai Hit INU-F1, Tokai Hit, Shizuoka-Ken, Japan) in order to keep cells in the optimal culturing environment. As an illumination source, we used a mercury arc discharge lamp and selected excitation and emission wavelengths with an FITC filter cube (EX 465–495 DM505 EM 515–555 nm). Use was made of an 60X1.45NA objective (Nikon Instruments S.P.A., Firenze, Italy) and, in order to minimize phototoxicity and photobleaching, a back-thinned electron multiplied CCD camera C9100-13 Imagem (Hamamatsu Photonics Italia S.R.L., Milano, Italy). After the first minute, required to achieve optimal culture conditions, intracellular fluorescence was continuously monitored (3 frames/sec) for 12 min. In all experiments, […], the cells were maintained in imaging buffer for the first 2 minutes, after which they were stimulated with 10 nM S100A8, 10 nM S100A9 and 50 nM NT-S100A8, alone or in combination with 0.02 ng/ml TGFβ1. For all stimuli, additions were made directly to the microscope chamber without interrupting the recording. The fluorescence signal was quantified by measuring the mean pixel value of a manually selected cellular area for each frame of the image stack using the HCimage system (Hamamatsu Photonics Italia S.R.L.). For all the experimental conditions, at least 3 independents sets of experiments were performed.

BxPC3 = assay: XTT cell viability assay, BxPC3; conditions: 48 hours, TGFβ1 0.02 ng/ml, NT-S100A8 50 nM, S100A8 10 nM, S100A9 10 nM, alone or combined, at least three independent experiments in quadruplicate
Method: BxPC3, Capan1, MiaPaCa2, Panc1 and BxPC3-SMAD4+ cells were seeded (2000 cells per well) in 96-well cell culture plates and cultured in complete media for 24 hours. Media were then replaced with fresh cell culture media in absence (control) or in presence of TGFβ1 (0.02 ng/ml) and NT-S100A8 (50 nM), alone or combined or in absence (control) or in presence of TGFβ1 (0.02 ng/ml), S100A8 (10 nM) and S100A9 (10 nM) alone or combined. Cell growth was assessed after 48 hours using the XTT cell viability test (Roche, Milano, Italy). At least three independent experiements, each made in quadruplicate, were run. The results were expressed as percentage with respect to the median Abs450nm of control cells run in the same experimental set.

What does the source list for “NT-S100A8: 14 N-terminal aminoacid peptide of S100A8, isolated from PDAC tissues (MLTELEKALNSIID; UniProt P05109 1-14, looked up, fragment)”?
Akt Ser473 phosphorylation [1]: augmented in the same cell lines; Akt Thr308 phosphorylation [1]: reduced in Capan1 and MiaPaCa2; mTOR Ser2448 phosphorylation [2]: inducing Ser^2481 and Ser^2448 phosphorylation in all cell lines; mTOR Ser2481 phosphorylation [2]: inducing Ser^2481 and Ser^2448 phosphorylation in all cell lines; [Ca2+]i variation per minute per cell (MiaPaCa2 [Ca2+]i): significant decrement of [Ca^2+]i

Which results are given for “S100A8: inflammatory calcium binding protein S100A8 (ProSpec-Tany TechnoGene)”?
BxPC3 % to Control Mean±SEM (BxPC3): 111.45±5.92 % to Control; Akt Ser473 phosphorylation [1]: reduced Akt Ser^473 phosphorylation in Capan1, MiaPaCa2 and Panc1 cells; Akt Thr308 phosphorylation [1]: induced in BxPC3, and reduced in the other cell lines; mTOR Ser2448 phosphorylation [2]: induced mTOR Ser^2448 phosphorylation in all cell lines; mTOR Ser2481 phosphorylation [2]: Ser^2481 in BxPC3 and Capan1; [Ca2+]i variation per minute per cell (MiaPaCa2 [Ca2+]i): significant decrement of [Ca^2+]i; effect on the [Ca2+]i decrement induced by TGFβ1 (MiaPaCa2 [Ca2+]i): partly counteracted

What does the source list for “S100A9: inflammatory calcium binding protein S100A9, S100A8 binding partner”?
BxPC3 % to Control Mean±SEM (BxPC3): 103.53± 5.18 % to Control; Akt Ser473 phosphorylation [1]: reduced Akt Ser^473 phosphorylation in Capan1, MiaPaCa2 and Panc1 cells; Akt Thr308 phosphorylation [1]: induced in BxPC3, and reduced in the other cell lines; mTOR Ser2448 phosphorylation [2]: induced mTOR Ser^2448 phosphorylation in all cell lines; mTOR Ser2481 phosphorylation [2]: Ser^2481 in BxPC3 and Capan1; effect on the [Ca2+]i decrement induced by TGFβ1 (MiaPaCa2 [Ca2+]i): completely reverted

Which “BxPC3 % to Control Mean±SEM” value (BxPC3) does the source give for “TGFβ1: transforming growth factor beta 1 (ProSpec-Tany TechnoGene)” here?
Its value is 96.85 ± 5.02 % to Control.

And the “Akt Thr308 phosphorylation” value [1]?
Its value is “inhibited Akt Thr^308, but not Akt Ser^473 phosphorylation in Smad4 expressing cells”.

And the “mTOR Ser2448 phosphorylation” value [2]?
Its value is “inducing Ser^2481 and Ser^2448 phosphorylation in all cell lines”.

And the “mTOR Ser2481 phosphorylation” value [2]?
The value was “inducing Ser^2481 and Ser^2448 phosphorylation in all cell lines”.

And the “[Ca2+]i variation per minute per cell” value (MiaPaCa2 [Ca2+]i)?
Its value is “significant decrement of [Ca^2+]i”.

Source: PMC4108065, “Inflammation and pancreatic cancer: molecular and functional interactions between S100A8, S100A9, NT-S100A8 and TGFβ1” (Cell Communication and Signaling : CCS, 2014)
